Measurements: patent publication US9340500B2, “Aromatic heterocyclic derivative having TRPV4-inhibiting activity” (SHIONOGI & CO., LTD., priority 2011, dated 2016)
≈ marks a conversion by molar mass, not a printed value.

Experiments:
[1] = target: human TRPV4 (Homo sapiens (Human), UniProt Q9HBA0); assay: Test Example 1: measurement of TRPV4 inhibitory activity (Fluo 4-AM, FLIPR TETRA, 4α-PDD 1 μmol/L); type: cell-based; settings: hTRPV4/CHO cells, 4α-PDD 1 μmol/L
Summary of the method: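 Calcium influx evoked by 4α-PDD (final 1 μmol/L) in hTRPV4/CHO-K1 cells loaded with Fluo-4 AM (final 3 μmol/L), pH 7.4 HEPES-Hanks with probenecid; compounds added 5 min earlier. Inhibition relative to 20 μM Ruthenium Red gave IC50 (logistic), converted to Ki via agonist EC50.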

[2] = Solubility test; type: physicochemical; settings: artificial intestinal juice (phosphate buffer) with 1% DMSO, fassgf or other biorelevant, kinetic from dmso stock, artificial intestinal juice pH 6.8, 16 hours at 25° C.
Summary of the method: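 A DMSO stock was added to artificial intestinal juice at pH 6.8, giving 1% DMSO. The mixture stood 16 hours at 25° C. and was vacuum-filtered. Dissolved compound in the filtrate was quantified by HPLC or LC/MS/MS using absolute calibration.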

human TRPV4, sequence (Q9HBA0 whole entry): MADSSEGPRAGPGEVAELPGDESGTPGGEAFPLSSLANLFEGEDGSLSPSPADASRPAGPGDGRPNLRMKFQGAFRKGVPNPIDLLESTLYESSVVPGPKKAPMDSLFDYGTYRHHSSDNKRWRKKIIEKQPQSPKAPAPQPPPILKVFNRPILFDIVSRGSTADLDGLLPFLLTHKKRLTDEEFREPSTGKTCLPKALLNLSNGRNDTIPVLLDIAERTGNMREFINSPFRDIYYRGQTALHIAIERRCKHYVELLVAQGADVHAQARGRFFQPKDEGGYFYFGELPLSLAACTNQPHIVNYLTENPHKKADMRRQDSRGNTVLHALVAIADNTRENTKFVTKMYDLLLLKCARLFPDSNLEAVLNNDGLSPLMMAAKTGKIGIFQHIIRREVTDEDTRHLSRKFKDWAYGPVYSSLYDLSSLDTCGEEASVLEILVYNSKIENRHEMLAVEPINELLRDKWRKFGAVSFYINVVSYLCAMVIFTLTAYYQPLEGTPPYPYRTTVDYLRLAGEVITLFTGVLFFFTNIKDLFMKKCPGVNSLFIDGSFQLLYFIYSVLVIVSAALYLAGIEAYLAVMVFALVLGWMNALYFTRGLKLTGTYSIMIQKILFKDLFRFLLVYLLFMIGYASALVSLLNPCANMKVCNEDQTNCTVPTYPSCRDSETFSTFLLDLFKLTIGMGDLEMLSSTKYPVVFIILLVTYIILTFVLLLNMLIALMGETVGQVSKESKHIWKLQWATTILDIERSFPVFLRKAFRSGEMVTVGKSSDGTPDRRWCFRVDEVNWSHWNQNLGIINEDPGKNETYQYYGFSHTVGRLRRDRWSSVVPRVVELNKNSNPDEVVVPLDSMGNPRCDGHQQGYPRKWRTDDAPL

Structure (SMILES): Cc1c(C(=O)Nc2cccc(C(F)(F)F)c2)ccn1CCCN1CCOCC1 [Compound I-007]
- IC50 [1]: 8.9 µM
- solubility at 16 h [2]: > 50 µM

Structure (SMILES): Cc1c(C(=O)Nc2cccc(C(F)(F)F)c2)cc(-c2ccccc2)n1CCCN(C)C [Compound I-018]
- IC50 [1]: 0.33 µM
- solubility at 16 h [2]: > 50 µM

Structure (SMILES): Cc1c(C(=O)Nc2cccc(C(F)(F)F)c2)cc(-c2ccccc2)n1CCCNS(C)(=O)=O [Compound I-026]
- IC50 [1]: 0.86 µM
- solubility at 16 h [2]: 10.1 µM (≈ 4.84 µg/mL)
